In general, IC50 refers to the concentration at which inhibition is half-maximal.

Sequence of human recombinant FKBP-12 (P62942 whole entry): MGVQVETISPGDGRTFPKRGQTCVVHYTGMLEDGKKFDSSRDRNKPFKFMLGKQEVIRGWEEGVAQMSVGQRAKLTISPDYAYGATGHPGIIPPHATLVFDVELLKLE

The first assay addresses human recombinant FKBP-12 (Homo sapiens, UniProt P62942). The experiment in a line: coupled colorimetric PPIase (rotamase) assay, IC50 against FKBP-12. The following applies: human recombinant FKBP-12, substrate succinyl-AFPF-pNA, 10° C., pH 8.0. It is filed as biochemical. The text has this:
The affinity of the compounds of the formula (I) for FKBP-12 can be determined in vitro in a coupled colorimetric PPlase assay using similar procedures to published methods (e.g. see Kofron, J. L., et al., Biochemistry, 1991, 30, 6127-6134, Zarnt, T., et al., Biochem. J. 1995, 305, 159-164, Holt, D. A., et al., J. Am. Chem. Soc., 1993,115, 9925-9938). In these methods, the cis-trans isomerisation of a hydrophobic amino acid-proline bond in a tetrapeptide substrate (e.g. the phenylalanine-proline bond in N-succinyl-ala-phepro-phe-p-nitroanilide [succinyl-AFPF-pNA]) can be determined by monitoring cleavage of pNA from the transPro-containing peptide by an excess of chymotrypsin.
The IC50 (the concentration of the compound of the formula (I) producing 50% inhibition) values were determined using the following assay methodology. Assay buffer (2.175 ml) (50 mM 4-(2-hydroxyethyl)-1-piperazineethanesulphonic acid (HEPES), 100 mM NaCl, 1 mM dithiothreitol (DTT), pH 8.0) is equilibrated to 10° C. in a cuvette. 12.5 μl of a solution of the present compound in DMSO, 250 μl of a 60 mg/ml solution of a-chymotrypsin in 1 mM aqueous hydrochloric acid and then 50 μl of a solution of human recombinant FKBP-12 (4.5 μM) in assay buffer are added and mixed. The reaction is initiated by addition of 12.5 μl of a solution of 20 mM succinyl-AFPF-pNA in DMSO. The absorbance at 390 nm is monitored for one minute collecting data every 0.25 second. Data are fitted with a first order rate equation with offset and the rate constant obtained corrected for the rate of uncatalysed isomerisation of the substrate. The rate constant determined at different inhibitor concentrations (10 nM to 100 μM) is expressed as % inhibition of the control rate constant. The IC50 is estimated using a nonlinear least squares curve fitting routine of the sigmoidal dose response data.
In the case of `O=S(=O)(c1nc2ccccc2[nH]1)N1CCCC[C@H]1c1noc(Cc2ccccc2)n1` [Example 1, 1H-Benzo[d]imidazol-2-yl[(2S)-2-(5-benzyl-1,2,4-oxadiazol-3-yl)-1-piperidyl]sulfone], the IC50 worked out at 95 nM.
`CNCc1ccc(OCc2nc(C3CCCCN3S(=O)(=O)c3nc4ccccc4[nH]3)no2)cc1` (centres unmarked) [Example 14, N-[4-(3-[1-(1H-Benzo[d]imidazol-2-ylsulfonyl)-2-piperidyl]-1,2,4-oxadiazol-5-ylmethoxy)benzyl]-N-methylamine]: the half-inhibitory concentration (IC50) worked out at 91 nM.
`O=S(=O)(CC1CCCCC1)N1CCCC[C@H]1c1noc(COC2CCNCC2)n1` [Example 23, 3-[(2S)-1-Cyclohexylmethylsulfonyl-2-piperidyl]-5-[4-piperidyloxymethyl]-1,2,4-oxadiazole]: the IC50 came out at 336 nM.
Consider `NCc1ccc(-c2nc([C@@H]3CCCCN3S(=O)(=O)CC3CCCCC3)no2)o1` [Example 25, [5-(3-(2S)-1-[(Cyclohexylmethyl)sulfonyl]-2-piperidyl-1,2,4-oxadiazol-5-yl)-2-furyl]methylamine], for which the IC50 is 81 nM.
In the case of `O=S(=O)(c1ccc(F)cc1)N1CCCC[C@H]1c1nnc(CCc2ccccc2)o1` [Example 42], the IC50 turned out to be 2010 nM.
For the compound `O=S(=O)(c1ccc(F)cc1)N1CCCC[C@H]1c1nnn(Cc2ccccc2)n1` [Example 43], the IC50 turned out to be 1670 nM.
For `O=S(=O)(c1nc2ccccc2[nH]1)N1CCCCC1c1noc(-c2ncccn2)n1` (centres unmarked) [Example 65], the IC50 turned out to be 442 nM.

The target in a further assay is T1, human recombinant FKBP52 (Homo sapiens, UniProt Q02790).
T1 sequence (Q02790 1-459): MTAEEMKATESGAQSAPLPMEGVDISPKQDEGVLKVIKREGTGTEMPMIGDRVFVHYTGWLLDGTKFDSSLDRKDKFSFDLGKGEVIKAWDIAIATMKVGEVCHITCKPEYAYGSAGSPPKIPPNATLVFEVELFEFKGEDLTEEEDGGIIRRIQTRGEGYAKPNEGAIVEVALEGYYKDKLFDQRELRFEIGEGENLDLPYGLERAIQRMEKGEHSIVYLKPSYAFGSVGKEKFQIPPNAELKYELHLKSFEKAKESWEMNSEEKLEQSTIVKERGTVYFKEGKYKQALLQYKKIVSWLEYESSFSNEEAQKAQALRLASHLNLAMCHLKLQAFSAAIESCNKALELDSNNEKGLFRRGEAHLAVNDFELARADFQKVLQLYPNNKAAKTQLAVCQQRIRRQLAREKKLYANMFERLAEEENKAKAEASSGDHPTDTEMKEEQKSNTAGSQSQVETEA
The experiment in a line: coupled colorimetric PPIase assay, Ki,app against FKBP52. Conditions: human recombinant FKBP52, substrate succinyl-ALPF-pNA, printed in the IC50 (nm) FKBP-12 column, read-out: Ki FKBP-52. It is filed as biochemical.
Take `NCc1ccc(OCc2nc([C@@H]3CCCCN3S(=O)(=O)c3nc4ccccc4[nH]3)no2)cc1` [Example 11, 4-(3-[(2S)-1-(1H-Benzo[d]imidazol-2-ylsuffonyl)-2-piperidyl]-1,2,4-oxadiazol-5-ylmethoxy)benzylamine]: the Ki stood at 685 nM.

For the origin of these results see patent publication US6610707B1, “Heterocyclic compounds as inhibitors of rotomase enzymes” (Pfizer Inc., priority 1998, dated 2003).
